Data reported in publication PMC8395125, “Conjugation with Phospholipids as a Modification Increasing Anticancer Activity of Phenolic Acids in Metastatic Melanoma—In Vitro and In Silico Studies” (International Journal of Molecular Sciences, 2021).

How the values were obtained:
[1] = tested on: normal skin fibroblasts NHDF; assay: MTT cell viability assay, NHDF; type: cell-based, human; conditions: 50 to 400 μM, 72 h; for IC50: Homo sapiens, MTT, mean ± SD
From the text: (§1) Three malignant melanoma cell lines (Me45, 1205-Lu and 451-Lu; obtained from the collection of the Centre of Oncology, Gliwice, Poland), neonatal human dermal fibroblast (NHDF; Lonza, Basel, Switzerland) and human colorectal adenocarcinoma cells (Caco-2; ATCC, Manassas, VA, USA) were used in the studies. The human malignant melanoma (Me45) cell line (derived from a lymph node metastasis of skin melanoma) was established in 1997 at the Radiobiology Department of the Centre of Oncology in Gliwice. 1205-Lu and 451-Lu cell lines were derived from human melanoma metastases to lungs of immunodeficient mice. The cells were cultivated in the medium DMEM-F12 (PAA, Warsaw, Poland) supplemented with 10% (for Me45, 1205-Lu and 451-Lu and NHDF) or 20% (Caco-2) of fetal bovine serum (FBS, Eurx, Gdansk, Poland). In addition, medium for Caco-2 cells contained Non-essential Amino Acid Solution (1×) (Sigma-Aldrich, Poznan, Poland). All cell lines were grown in the presence of 1% of antibiotics (10,000 μg/mL streptomycin and 10,000 units/mL penicillin; Sigma-Aldrich, Poznan, Poland), at 37 °C in humidified atmosphere with 5% CO2 under standard conditions. All experimental procedures were carried out in log-phase of cell growth. During some experiments melanoma cells were irradiated with X-rays at the dose of 2 Gy at the 24th hour of the incubation. Ionizing radiation was applied using a laboratory X-Cell 140 irradiator (Kubtec, Bridgeport, CT, USA).
(§2) Cells (Me45, 1205-Lu, 451-Lu and NHDF) were seeded on 96-well plates (20,000 cells/mL) 24 h before the experiment. One day later, fresh media containing tested compounds were added. The appropriate control, containing ethanol:DMSO (v/v 1:1) in fresh medium, was also prepared. The plates were incubated for a given time (72 h for Me45, 1205-Lu, 451-Lu and NHDF; 2 h for Caco-2) at 37 °C in humidified atmosphere with 5% CO2. After incubation, the medium was removed and cells were washed with physiological saline (PBS; PAA, Warsaw, Poland). In the next step, the cells were incubated with MTT (3-[4,5-dimethylthiazol-2-yl]-2,5-diphenyltetrazolium bromide, Sigma-Aldrich, Poznan, Poland) (solution of 0.5 mg/mL in RPMI 1640 without phenol red) for 2 h. Then, the MTT solution was removed and the formazan crystals were dissolved in the mixture isopropanol:HCl (v/v 1:0.04; both purchased from Sigma-Aldrich, Poznan, Poland). The absorbance of the obtained product was read at 570 nm using a microplate reader (Epoch; BioTek, Winooski, VT, USA). Survival rate was expressed as the percentage of cell survival and calculated from the ratio (A570 of treated cells/A570 of control cells) × 100%. The experiments were repeated three times.

451-Lu cells [2] = assay: Annexin-V/PI apoptosis assay, 451-Lu; type: cell-based, human; conditions: 100 µM, 72 h
Description: (§3) The studies of cell cycle, apoptosis and intracellular level of ROS were performed using the flow cytometry method. For the apoptosis assay, the cells were harvested and centrifuged (1500 rpm, 3 min). The apoptosis was measured using an Annexin-V apoptosis assay (BioLegend, San Diego, CA, USA). After supernatant removal, the cells were washed with PBS and centrifuged again. The pellets of cells were suspended in 50 μL of cold Annexin-V binding buffer and stained with FITC-labeled Annexin-V for 30 min at 37 °C in the dark. The Annexin-V binding buffer and propidium iodide (PI) solution (100 μg/mL; Sigma-Aldrich, Poznan, Poland) were then added and the samples were stored on ice till they were measured.
(§4) Cytometric analyses were performed immediately using an Aria III flow cytometer (Becton Dickinson, Franklin Lakes, NJ, USA) with FITC configuration (488 nm excitation; emission, LP mirror 503, BP filter 530/30) or with PE configuration (547 nm excitation; emission, 585 nm) and at least 10,000 cells were counted.

1205-Lu cells [3] = assay: Annexin-V/PI apoptosis assay, 1205-Lu; type: cell-based, human; conditions: 100 µM; for induction of apoptosis / fraction of necrotic cells: 72 h; for fraction of cells in the early stage of apoptosis: 48 h of incubation, without irradiation
Description: as §3, §4

Me45 cells [4] = assay: Annexin-V/PI apoptosis assay, Me45; type: cell-based, human; conditions: Me45, 100 µM, 72 h
Description: as §3, §4

[5] = tested on: 1205-Lu metastatic melanoma cells; assay: MTT cell viability assay, 1205-Lu; type: cell-based, human; conditions: 50 to 400 μM, 72 h; for toxicity / cell growth inhibition: 1205-Lu; for IC50: Homo sapiens, 1205Lu, MTT, mean ± SD
From the text: as §1, §2

[6] = tested on: 451-Lu metastatic melanoma cells; assay: MTT cell viability assay, 451-Lu; type: cell-based, human; conditions: 50 to 400 μM, 72 h; for toxicity / cell growth inhibition: 451-Lu; for IC50: Homo sapiens, 451Lu, MTT, mean ± SD
From the text: as §1, §2

[7] = tested on: Me45 metastatic melanoma cells; assay: MTT cell viability assay, Me45; type: cell-based, human; conditions: 72 h; for toxicity / cell growth inhibition: Me45, 50 to 400 μM; for IC50: Homo sapiens, MTT, 50 to 400 μM, mean ± SD
From the text: as §1, §2

451-Lu cells [8] = assay: Cell cycle analysis (PI, flow cytometry), 451-Lu; type: cell-based, human; conditions: 100 µM, 72 h, vs untreated control
Description: (§5) For cell cycle analysis, harvested cells were centrifuged (1500 rpm, 3 min). After supernatant removal, cells were fixed with a hypotonic buffer, containing PI at 100 µg/mL in PBS, 5 mg/l of citric acid, 1:9 Triton-X solution, 100 µg/mL of RNase in PBS (Sigma-Aldrich, Poznan, Poland). Probes were incubated for 20 min at room temperature in the dark, then stored on ice till they were measured.
as §4

1205-Lu melanoma cells = assay: Intracellular ROS formation (DCFH-DA, flow cytometry), 1205-Lu; type: cell-based, human; conditions: 72 h, DCF fluorescence
Description: (§6) The experiments on ROS content were performed after 72 h of incubation with the given compounds. The cells were harvested and centrifuged (1500 rpm, 3 min), washed with PBS and centrifuged again. The pellet was resuspended in culture medium and a cell-permeable non-fluorescent probe 2′,7′-dichlorofluorescin diacetate (DCFH-DA, Sigma-Aldrich, Poznan, Poland) at a final concentration of 30 µM was added. The samples were incubated in darkness for 30 min at 37 °C, then stored on ice till they were measured. DCFH-DA is hydrolyzed by cellular esterases into its polar form DCFH. Due to the intracellular ROS and other peroxides, DCFH undergoes oxidation and turns into highly fluorescent compond 2′,7′-dichlorofluorescein (DCF).
as §4

451-Lu melanoma cells = assay: Intracellular ROS formation (DCFH-DA, flow cytometry), 451-Lu; type: cell-based, human; conditions: 72 h, DCF fluorescence
Description: as §6, §4

Me45 melanoma cells = assay: Intracellular ROS formation (DCFH-DA, flow cytometry), Me45; type: cell-based, human; conditions: Me45, 72 h, DCF fluorescence
Description: as §6, §4

Me45 cells [9] = assay: Cell cycle analysis (PI, flow cytometry), Me45; type: cell-based, human; conditions: Me45, 100 µM, 72 h, vs untreated control
Description: as §5, §4

colon cancer cells = tested on: colon cancer cells; parameters: method as in PMID 30104549; conditions: cited from earlier work
1205-Lu cells [10] = assay: Pro-apoptotic activity in combination with ionizing radiation (2 Gy), 1205-Lu; type: cell-based, human; conditions: 100 µM, 48 h, X-rays 2 Gy at the 24th hour
Description: In the next step, pilot experiments on the pro-apoptotic activity of phenolic acid-PC conjugates in combination with ionizing radiation (IR) were performed. […] The time of incubation with a given compound was reduced to 48 h. X-rays at the dose of 2 Gy were applied at the 24th hour of incubation.
Three malignant melanoma cell lines (Me45, 1205-Lu and 451-Lu; obtained from the collection of the Centre of Oncology, Gliwice, Poland), neonatal human dermal fibroblast (NHDF; Lonza, Basel, Switzerland) and human colorectal adenocarcinoma cells (Caco-2; ATCC, Manassas, VA, USA) were used in the studies. […]
The studies of cell cycle, apoptosis and intracellular level of ROS were performed using the flow cytometry method. […] The apoptosis was measured using an Annexin-V apoptosis assay (BioLegend, San Diego, CA, USA). […] The Annexin-V binding buffer and propidium iodide (PI) solution (100 μg/mL; Sigma-Aldrich, Poznan, Poland) were then added and the samples were stored on ice till they were measured.
as §4

## COc1ccc(C(=O)O)cc1 [1a, 4-methoxybenzoic acid, reference compound]
[1]
  toxicity / cell growth inhibition: non-toxic
451-Lu cells [2]
  induction of apoptosis: no ability to induce apoptosis
1205-Lu cells [3]
  induction of apoptosis: no ability to induce apoptosis
Me45 cells [4]
  induction of apoptosis: no ability to induce apoptosis
[5]
  toxicity / cell growth inhibition: non-toxic
[6]
  toxicity / cell growth inhibition: non-toxic
[7]
  toxicity / cell growth inhibition: non-toxic

## COc1ccc(C(=O)O)cc1OC [1b, 3,4-dimethoxybenzoic acid, reference compound]
[1]
  toxicity / cell growth inhibition: non-toxic
451-Lu cells [2]
  induction of apoptosis: no ability to induce apoptosis
1205-Lu cells [3]
  induction of apoptosis: no ability to induce apoptosis
Me45 cells [4]
  induction of apoptosis: no ability to induce apoptosis
[5]
  toxicity / cell growth inhibition: non-toxic
[6]
  toxicity / cell growth inhibition: non-toxic
[7]
  toxicity / cell growth inhibition: non-toxic

## COc1ccc(C(=O)OC[C@H](COP(=O)([O-])OCC[N+](C)(C)C)OC(=O)c2ccc(OC)cc2)cc1 [3a, 1,2-dianisoyl-sn-glycero-3-phosphocholine]
451-Lu cells [8]
  cell cycle phase distribution: increased the fraction of melanoma cells in the sub-G1 phase
[1]
  IC50: 238 ± 17.8 µM
451-Lu cells [2]
  fraction of necrotic cells: significant increase in the fraction of necrotic cells
  induction of apoptosis: significant potency to induce apoptosis
1205-Lu melanoma cells
  reactive oxygen species formation (antioxidant activity, words): strongest antioxidant
1205-Lu cells [3]
  fraction of cells in the early stage of apoptosis: ~ 17%
  fraction of necrotic cells: significant increase in the fraction of necrotic cells
  induction of apoptosis: significant potency to induce apoptosis
Me45 cells [4]
  induction of apoptosis: significant potency to induce apoptosis
451-Lu melanoma cells
  reactive oxygen species formation (antioxidant activity, words): strongest antioxidant
[5]
  IC50: 82 ± 10.5 µM
[6]
  IC50: 47.5 ± 2.7 µM
[7]
  IC50: 111 ± 4.5 µM
Me45 melanoma cells
  reactive oxygen species formation (antioxidant activity, words): strongest antioxidant

## COc1ccc(C(=O)OC[C@H](COP(=O)([O-])OCC[N+](C)(C)C)OC(=O)c2ccc(OC)c(OC)c2)cc1OC [3b, 1,2-diveratroyl-sn-glycero-3-phosphocholine]
451-Lu cells [8]
  cell cycle phase distribution: increased the fraction of melanoma cells in the sub-G1 phase
[1]
  IC50: 168 ± 11.3 µM
451-Lu cells [2]
  fraction of necrotic cells: significant increase in the fraction of necrotic cells
  induction of apoptosis: significant potency to induce apoptosis
Me45 cells [9]
  cell cycle phase distribution: increased the fraction of Me45 cells in the sub-G1 as well as G2/M phases
1205-Lu melanoma cells
  reactive oxygen species formation (antioxidant activity, words): highest ability to reduce ROS formation
1205-Lu cells [3]
  fraction of cells in the early stage of apoptosis: ~ 22%
  fraction of necrotic cells: significant increase in the fraction of necrotic cells
  induction of apoptosis: significant potency to induce apoptosis
Me45 cells [4]
  induction of apoptosis: significant potency to induce apoptosis
451-Lu melanoma cells
  reactive oxygen species formation (antioxidant activity, words): highest ability to reduce ROS formation
[5]
  IC50: 153 ± 9.5 µM
[6]
  IC50: 48.3 ± 5.5 µM
[7]
  IC50: 84.4 ± 14 µM
Me45 melanoma cells
  reactive oxygen species formation (antioxidant activity, words): highest ability to reduce ROS formation
Colon cancer cells
  overcoming of doxorubicin-resistance: partially overcome doxorubicin-resistance

## CCCCCCCCCCCCCCCC(=O)OC[C@H](COP(=O)([O-])OCC[N+](C)(C)C)OC(=O)c1ccc(OC)cc1 [5a, 1-palmitoyl-2-anisoyl-sn-glycero-3-phosphocholine]
[1]
  IC50: 249 ± 20.9 µM
451-Lu cells [2]
  induction of apoptosis: slightly increased
Me45 cells [4]
  induction of apoptosis: slightly increased
[5]
  IC50: 71.3 ± 7.7 µM
[6]
  IC50: 97.7 ± 8 µM
[7]
  IC50: 122 ± 10 µM

## CCCCCCCCCCCCCCCC(=O)OC[C@H](COP(=O)([O-])OCC[N+](C)(C)C)OC(=O)c1ccc(OC)c(OC)c1 [5b, 1-palmitoyl-2-veratroyl-sn-glycero-3-phosphocholine]
451-Lu cells [8]
  cell cycle phase distribution: increased the fraction of melanoma cells in the sub-G1 phase
[1]
  IC50: 185 ± 13.7 µM
Me45 cells [9]
  cell cycle phase distribution: Increased fraction of Me45 cells in G2/M phase
Me45 cells [4]
  induction of apoptosis: significantly higher fractions of Me45 cells in the early and late stages of apoptosis
[5]
  IC50: 102 ± 4.1 µM
[6]
  IC50: 137 ± 7.7 µM
[7]
  IC50: 109 ± 7.6 µM

## CCCCCCCCCCCCCCCC(=O)O[C@H](COC(=O)c1ccc(OC)cc1)COP(=O)([O-])OCC[N+](C)(C)C [8a, 1-anisoyl-2-palmitoyl-sn-glycero-3-phosphocholine]
[1]
  IC50: 198 ± 20.8 µM
[5]
  IC50: 62.2 ± 7.1 µM
1205-Lu cells [10]
  pro-apoptotic effect in combination with ionizing radiation: most effective combinations
[6]
  IC50: 54.1 ± 6.7 µM
[7]
  IC50: 131 ± 9.9 µM

## CCCCCCCCCCCCCCCC(=O)O[C@H](COC(=O)c1ccc(OC)c(OC)c1)COP(=O)([O-])OCC[N+](C)(C)C [8b, 1-veratroyl-2-palmitoyl-sn-glycero-3-phosphocholine]
[1]
  IC50: 150 ± 17.9 µM
Me45 cells [9]
  cell cycle phase distribution: Increased fraction of Me45 cells in G2/M phase
[5]
  IC50: 73.2 ± 9.3 µM
1205-Lu cells [10]
  pro-apoptotic effect in combination with ionizing radiation: most effective combinations
[6]
  IC50: 82.2 ± 14.3 µM
[7]
  IC50: 126 ± 3.7 µM
